Laboratory results as given in patent US8815872B2, “Macrocyclics pyrimidines as aurora kinase inhibitors” (Merck Patent GmbH, priority 2008, dated 2014).
Values belong to the compound of their own block, whether it stands above or below them.

Tests used:
[1] = from C=CCOc1cccc(Nc2ncc(F)c(N[C@H]3[C@@H](C(N)=O)[C@@H]4C=C[C@H]3C4)n2)c1; rcm bond; Grubbs 2nd generation; dichloromethane; 19.2 mM; 40.0 °C; 3.0 h
EF2K = molecular target: T1, EF2K (Homo sapiens, UniProt O00418); test: Other kinases, inhibition at 1 μM (Table 3); assay type: biochemical
T1 construct: purchased Caliper Life Sciences
Protocol: (§1) The Aurora and other kinase assays described here were performed on two Caliper Life Sciences systems, the LC3000 and the Desktop Profiler. These provide data on enzyme activity via measurement of the relative amounts of phosphorylated or unphosphorylated fluorescently labelled substrate peptide at the end of an enzymatic reaction. These different states of peptide are resolved by applying a potential difference across the sample. The presence of a charged phosphate group on the product (as opposed to the substrate) causes a different peptide mobility between the two peptides. This is visualized by excitation of a fluorescent label on the substrate and product peptides and represented as peaks within the analysis software.
(§2) The Desktop Profiler utilizes the same principal as the LC 3000 for calculating percentage conversion of a substrate to product. Caliper Life Sciences provided proprietary flash frozen pre-made 384 well plates containing selected kinases. Each column in the 384 well plate contained a particular selected kinase. A second plate, the ‘substrate plate’ contained a mix of fluorescently labeled peptide substrate and ATP. These were arranged in columns so that transfer for substrate plate to enzyme plate provided the correct enzyme with the correct substrate/ATP concentration.
(§3) Compounds were added to a thawed enzyme plate in the desired format, in single concentrations. Reactions were initiated by transfer of the ubstrate/ATP mix from the substrate plate. The enzyme plate was incubated for 90 mins at 25 °C. The reaction was stopped by addition of […] of Stop Buffer (100 mM HEPES pH 7.5, 0.015% Brij-35, 10 mM EDTA (Sigma, E7889)).
(§4) Plates were read in a manner identical to that of the LC3000, and the ratio between substrate and product peaks provided the activity of the enzyme in that well. This was best represented by a plate heat map which colors each well by percent inhibition as compared to positive and negative controls (no inhibitors and no ATP respectively).

FGFR1 = molecular target: T2, FGFR1 (Homo sapiens, UniProt P11362); test: Other kinases, inhibition at 1 μM (Table 3); assay type: biochemical
T2 construct: purchased Caliper Life Sciences
Protocol: as §1, §2, §3, §4

IKK-epsilon = molecular target: T3, IKK-epsilon (Homo sapiens, UniProt Q14164); test: Other kinases, inhibition at 1 μM (Table 3); assay type: biochemical
T3 construct: purchased Caliper Life Sciences
Protocol: as §1, §2, §3, §4

IR = molecular target: T4, IR (Homo sapiens, UniProt P06213); test: Other kinases, inhibition at 1 μM (Table 3); assay type: biochemical
T4 construct: purchased Caliper Life Sciences
Protocol: as §1, §2, §3, §4

MAPKAP-K1-beta = molecular target: T5, MAPKAP-K1-beta (Homo sapiens, UniProt P51812); test: Other kinases, inhibition at 1 μM (Table 3); assay type: biochemical
T5 construct: purchased Caliper Life Sciences
Protocol: as §1, §2, §3, §4

MARK3 = molecular target: T6, MARK3 (Homo sapiens, UniProt P27448); test: Other kinases, inhibition at 1 μM (Table 3); assay type: biochemical
T6 construct: purchased Caliper Life Sciences
Protocol: as §1, §2, §3, §4

MELK = molecular target: T7, MELK (Homo sapiens, UniProt Q14680); test: Other kinases, inhibition at 1 μM (Table 3); assay type: biochemical
T7 construct: purchased Caliper Life Sciences
Protocol: as §1, §2, §3, §4

SAPK3 = molecular target: T8, SAPK3 (Homo sapiens, UniProt P53778); test: Other kinases, inhibition at 1 μM (Table 3); assay type: biochemical
T8 construct: purchased Caliper Life Sciences
Protocol: as §1, §2, §3, §4

SGK = molecular target: T9, SGK (Homo sapiens, UniProt O00141); test: Other kinases, inhibition at 1 μM (Table 3); assay type: biochemical
T9 construct: purchased Caliper Life Sciences
Protocol: as §1, §2, §3, §4

TBK1 = molecular target: T10, TBK1 (Homo sapiens, UniProt Q9UHD2); test: Other kinases, inhibition at 1 μM (Table 3); assay type: biochemical
T10 construct: purchased Caliper Life Sciences
Protocol: as §1, §2, §3, §4

NEK6 = molecular target: T11, NEK6 (Homo sapiens, UniProt Q9HC98); test: Other kinases, inhibition at 1 μM (Table 3); assay type: biochemical
T11 construct: purchased Caliper Life Sciences
Protocol: as §1, §2, §3, §4

FAK(h) = molecular target: T12, FAK(h) (Homo sapiens, UniProt Q05397); test: Inhibition of other kinases IC50 (Table 2); assay type: biochemical
T12 construct: purchased Caliper Life Sciences
Procedure, shortened: (§5)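 Kinase activity was measured by microfluidic mobility-shift separation of phosphorylated and unphosphorylated fluorescently labelled substrate peptide at the end of the enzymatic reaction. Product and substrate were resolved by their charge difference and detected by fluorescence.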

Pyk2(h) = molecular target: T13, Pyk2(h) (Homo sapiens, UniProt Q14289); test: Inhibition of other kinases IC50 (Table 2); assay type: biochemical
T13 construct: purchased Caliper Life Sciences
Procedure, shortened: as §5

CDK2/cyclinA(h) = molecular target: T14, CDK2/cyclinA(h) (Homo sapiens, UniProt P24941); test: Other kinases, single-concentration inhibition (Table 3); assay type: biochemical; conditions: 1 μM
T14 construct: purchased Caliper Life Sciences
Procedure, shortened: (§6)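 Phosphopeptide formation was followed by electrophoretic separation from unphosphorylated labelled substrate. Kinase was exposed to a single compound concentration with substrate/ATP for 90 min at 25 °C, then EDTA-quenched. Activity was scored as percent inhibition against positive and negative controls.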

CHK1(h) = molecular target: T15, CHK1(h) (Homo sapiens, UniProt O14757); test: as above; assay type: biochemical; conditions: 1 μM
T15 construct: purchased Caliper Life Sciences
Procedure, shortened: as §6

CHK2(h) = molecular target: T16, CHK2(h) (Homo sapiens, UniProt O96017); test: as above; assay type: biochemical; conditions: 1 μM
T16 construct: purchased Caliper Life Sciences
Procedure, shortened: as §6

DDR2(h) = molecular target: T17, DDR2(h) (Homo sapiens, UniProt Q16832); test: as above; assay type: biochemical; conditions: 1 μM
T17 construct: purchased Caliper Life Sciences
Procedure, shortened: as §6

FGFR1(h) = molecular target: T18, FGFR1(h) (Homo sapiens, UniProt P11362); test: as above; assay type: biochemical; conditions: 1 μM
T18 construct: purchased Caliper Life Sciences
Procedure, shortened: as §6

Flt4(h) = molecular target: T19, Flt4(h) (Homo sapiens, UniProt P35916); test: as above; assay type: biochemical; conditions: 1 μM
T19 construct: purchased Caliper Life Sciences
Procedure, shortened: as §6

Fms(h) = molecular target: T20, Fms(h) (Homo sapiens, UniProt P07333); test: as above; assay type: biochemical; conditions: 1 μM
T20 construct: purchased Caliper Life Sciences
Procedure, shortened: as §6

Lyn(h) = molecular target: T21, Lyn(h) (Homo sapiens, UniProt P07948); test: as above; assay type: biochemical; conditions: 1 μM
T21 construct: purchased Caliper Life Sciences
Procedure, shortened: as §6

PDGFRα(h) = molecular target: T22, PDGFRα(h) (Homo sapiens, UniProt P16234); test: as above; assay type: biochemical; conditions: 1 μM
T22 construct: purchased Caliper Life Sciences
Procedure, shortened: as §6

Plk1(h) = molecular target: T23, Plk1(h) (Homo sapiens, UniProt P53350); test: as above; assay type: biochemical; conditions: 1 μM
T23 construct: purchased Caliper Life Sciences
Procedure, shortened: as §6

Plk3(h) = molecular target: T24, Plk3(h) (Homo sapiens, UniProt Q9H4B4); test: as above; assay type: biochemical; conditions: 1 μM
T24 construct: purchased Caliper Life Sciences
Procedure, shortened: as §6

SIK(h) = molecular target: T25, SIK(h) (Homo sapiens, UniProt P57059); test: as above; assay type: biochemical; conditions: 1 μM
T25 construct: purchased Caliper Life Sciences
Procedure, shortened: as §6

Yes(h) = molecular target: T26, Yes(h) (Homo sapiens, UniProt P07947); test: as above; assay type: biochemical; conditions: 1 μM
T26 construct: purchased Caliper Life Sciences
Procedure, shortened: as §6

c-RAF(h) = molecular target: T27, c-RAF(h) (Homo sapiens, UniProt P04049); test: as above; assay type: biochemical; conditions: 1 μM
T27 construct: purchased Caliper Life Sciences
Procedure, shortened: as §6

cSRC(h) = molecular target: T28, cSRC(h) (Homo sapiens, UniProt P12931); test: as above; assay type: biochemical; conditions: 1 μM
T28 construct: purchased Caliper Life Sciences
Procedure, shortened: as §6

p70S6K(h) = molecular target: T29, p70S6K(h) (Homo sapiens, UniProt P23443); test: as above; assay type: biochemical; conditions: 1 μM
T29 construct: purchased Caliper Life Sciences
Procedure, shortened: as §6

Abl(T315I)(h) = molecular target: T30, Abl(T315I)(h) (Homo sapiens, UniProt P00519, T315I); test: Inhibition of other kinases IC50 (Table 2); assay type: biochemical
T30 construct: purchased Caliper Life Sciences
Procedure, shortened: as §5

T6 sequence (P27448 whole entry, species assumed): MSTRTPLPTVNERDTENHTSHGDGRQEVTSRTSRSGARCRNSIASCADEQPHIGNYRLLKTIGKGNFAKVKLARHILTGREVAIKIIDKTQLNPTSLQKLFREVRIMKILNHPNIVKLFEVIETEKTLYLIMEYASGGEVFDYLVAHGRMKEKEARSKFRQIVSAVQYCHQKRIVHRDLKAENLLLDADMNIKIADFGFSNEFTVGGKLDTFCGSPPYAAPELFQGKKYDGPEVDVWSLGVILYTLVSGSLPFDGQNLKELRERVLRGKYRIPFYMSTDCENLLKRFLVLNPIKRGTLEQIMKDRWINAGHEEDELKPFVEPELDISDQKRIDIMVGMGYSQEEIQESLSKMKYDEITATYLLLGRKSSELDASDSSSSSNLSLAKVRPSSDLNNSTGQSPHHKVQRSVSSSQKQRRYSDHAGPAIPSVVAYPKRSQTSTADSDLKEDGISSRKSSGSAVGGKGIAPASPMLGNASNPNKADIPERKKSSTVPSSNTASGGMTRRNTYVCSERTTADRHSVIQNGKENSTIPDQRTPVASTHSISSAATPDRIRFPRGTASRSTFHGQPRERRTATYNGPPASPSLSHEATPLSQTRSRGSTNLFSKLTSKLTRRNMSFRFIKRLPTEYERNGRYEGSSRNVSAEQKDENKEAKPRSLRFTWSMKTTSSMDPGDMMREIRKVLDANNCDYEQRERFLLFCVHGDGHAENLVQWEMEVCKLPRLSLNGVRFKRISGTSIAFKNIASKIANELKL
T4 sequence (P06213 28-1382): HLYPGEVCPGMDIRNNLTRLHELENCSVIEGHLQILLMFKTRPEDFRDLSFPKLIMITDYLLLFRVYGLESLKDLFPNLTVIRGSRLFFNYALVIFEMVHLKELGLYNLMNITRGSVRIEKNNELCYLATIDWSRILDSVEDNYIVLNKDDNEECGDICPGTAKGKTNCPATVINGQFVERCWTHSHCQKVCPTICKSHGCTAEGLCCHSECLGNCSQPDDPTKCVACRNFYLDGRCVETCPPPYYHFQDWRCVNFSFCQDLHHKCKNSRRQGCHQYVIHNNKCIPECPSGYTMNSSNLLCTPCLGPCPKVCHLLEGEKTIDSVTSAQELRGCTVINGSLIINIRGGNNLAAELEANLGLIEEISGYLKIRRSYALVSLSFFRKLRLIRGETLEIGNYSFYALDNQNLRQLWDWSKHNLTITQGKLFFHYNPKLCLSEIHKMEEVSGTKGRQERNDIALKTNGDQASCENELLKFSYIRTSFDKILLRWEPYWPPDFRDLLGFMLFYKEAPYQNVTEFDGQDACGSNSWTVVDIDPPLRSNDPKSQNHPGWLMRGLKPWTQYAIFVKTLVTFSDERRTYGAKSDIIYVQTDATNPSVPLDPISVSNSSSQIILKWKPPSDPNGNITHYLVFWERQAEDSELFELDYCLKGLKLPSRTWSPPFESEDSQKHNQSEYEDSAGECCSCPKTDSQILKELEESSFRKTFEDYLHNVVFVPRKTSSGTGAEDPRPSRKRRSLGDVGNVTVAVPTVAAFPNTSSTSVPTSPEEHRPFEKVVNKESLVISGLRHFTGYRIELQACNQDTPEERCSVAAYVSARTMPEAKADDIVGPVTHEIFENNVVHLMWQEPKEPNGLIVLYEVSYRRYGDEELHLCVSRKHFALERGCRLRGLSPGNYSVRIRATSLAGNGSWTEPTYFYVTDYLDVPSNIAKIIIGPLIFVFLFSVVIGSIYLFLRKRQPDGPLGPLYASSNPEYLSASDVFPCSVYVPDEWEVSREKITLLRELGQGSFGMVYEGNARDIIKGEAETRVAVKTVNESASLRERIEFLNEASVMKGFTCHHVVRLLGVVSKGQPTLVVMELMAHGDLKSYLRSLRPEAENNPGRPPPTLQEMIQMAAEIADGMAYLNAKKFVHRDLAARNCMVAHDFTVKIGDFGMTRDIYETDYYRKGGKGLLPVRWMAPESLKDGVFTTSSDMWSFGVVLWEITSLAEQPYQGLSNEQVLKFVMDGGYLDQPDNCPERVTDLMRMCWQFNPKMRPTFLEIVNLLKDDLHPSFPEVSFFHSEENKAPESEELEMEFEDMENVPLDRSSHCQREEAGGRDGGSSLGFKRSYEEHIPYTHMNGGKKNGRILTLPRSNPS
T9 sequence (O00141 whole entry, species assumed): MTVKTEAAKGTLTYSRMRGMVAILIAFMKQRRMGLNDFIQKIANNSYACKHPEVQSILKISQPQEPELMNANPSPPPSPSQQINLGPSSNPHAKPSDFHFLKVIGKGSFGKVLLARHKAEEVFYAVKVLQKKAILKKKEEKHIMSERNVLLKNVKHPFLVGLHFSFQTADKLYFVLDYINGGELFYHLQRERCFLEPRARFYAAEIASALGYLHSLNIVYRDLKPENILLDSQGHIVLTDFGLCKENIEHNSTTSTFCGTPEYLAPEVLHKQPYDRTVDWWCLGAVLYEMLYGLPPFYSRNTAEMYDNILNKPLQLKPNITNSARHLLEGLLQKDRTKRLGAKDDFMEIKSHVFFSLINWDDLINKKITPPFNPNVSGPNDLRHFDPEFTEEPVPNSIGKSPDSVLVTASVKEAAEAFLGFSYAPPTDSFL
T3 sequence (Q14164 whole entry, species assumed): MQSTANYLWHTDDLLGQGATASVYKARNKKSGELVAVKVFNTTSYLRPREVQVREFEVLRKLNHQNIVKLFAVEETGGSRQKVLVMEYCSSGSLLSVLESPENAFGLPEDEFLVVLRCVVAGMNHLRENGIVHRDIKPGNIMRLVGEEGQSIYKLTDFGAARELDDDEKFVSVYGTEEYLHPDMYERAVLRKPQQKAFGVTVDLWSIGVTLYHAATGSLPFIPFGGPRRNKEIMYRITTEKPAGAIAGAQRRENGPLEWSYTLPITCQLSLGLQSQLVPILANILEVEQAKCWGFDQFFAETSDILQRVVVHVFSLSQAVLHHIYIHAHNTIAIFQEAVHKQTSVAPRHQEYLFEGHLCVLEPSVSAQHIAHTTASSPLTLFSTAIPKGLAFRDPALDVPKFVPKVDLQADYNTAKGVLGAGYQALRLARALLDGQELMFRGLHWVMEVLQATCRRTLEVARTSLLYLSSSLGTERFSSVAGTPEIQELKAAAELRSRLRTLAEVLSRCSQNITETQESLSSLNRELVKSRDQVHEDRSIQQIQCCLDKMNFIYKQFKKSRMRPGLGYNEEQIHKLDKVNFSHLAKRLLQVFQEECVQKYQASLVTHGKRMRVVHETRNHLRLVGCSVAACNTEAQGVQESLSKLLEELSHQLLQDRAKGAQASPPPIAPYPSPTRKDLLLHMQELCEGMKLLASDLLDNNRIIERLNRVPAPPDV
T8 sequence (P53778 whole entry, species assumed): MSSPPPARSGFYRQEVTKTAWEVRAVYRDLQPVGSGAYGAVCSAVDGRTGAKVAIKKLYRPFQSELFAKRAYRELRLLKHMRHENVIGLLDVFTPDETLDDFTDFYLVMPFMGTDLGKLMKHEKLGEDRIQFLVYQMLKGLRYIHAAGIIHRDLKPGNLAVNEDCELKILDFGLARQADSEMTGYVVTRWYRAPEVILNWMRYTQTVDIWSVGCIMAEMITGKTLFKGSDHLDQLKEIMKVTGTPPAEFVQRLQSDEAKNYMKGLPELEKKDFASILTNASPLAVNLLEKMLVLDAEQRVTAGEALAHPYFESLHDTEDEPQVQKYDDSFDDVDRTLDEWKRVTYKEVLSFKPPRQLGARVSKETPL
T7 sequence (Q14680 whole entry, species assumed): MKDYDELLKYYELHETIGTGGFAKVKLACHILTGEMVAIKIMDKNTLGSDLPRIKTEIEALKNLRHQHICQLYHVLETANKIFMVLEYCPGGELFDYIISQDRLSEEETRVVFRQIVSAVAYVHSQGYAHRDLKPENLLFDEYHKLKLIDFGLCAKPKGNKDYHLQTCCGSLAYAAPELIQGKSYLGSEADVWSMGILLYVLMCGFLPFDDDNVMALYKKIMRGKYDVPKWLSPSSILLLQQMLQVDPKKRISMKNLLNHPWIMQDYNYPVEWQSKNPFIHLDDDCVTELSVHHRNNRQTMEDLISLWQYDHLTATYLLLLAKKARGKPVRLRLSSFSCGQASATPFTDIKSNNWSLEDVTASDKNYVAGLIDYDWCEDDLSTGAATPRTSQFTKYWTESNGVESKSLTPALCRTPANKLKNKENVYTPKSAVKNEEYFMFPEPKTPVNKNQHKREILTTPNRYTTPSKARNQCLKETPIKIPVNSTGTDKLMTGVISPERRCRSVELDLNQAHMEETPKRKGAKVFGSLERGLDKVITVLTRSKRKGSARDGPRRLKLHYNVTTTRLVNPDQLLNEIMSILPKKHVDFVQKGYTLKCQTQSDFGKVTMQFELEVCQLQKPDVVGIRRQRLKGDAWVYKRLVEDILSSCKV
T10 sequence (Q9UHD2 whole entry, species assumed): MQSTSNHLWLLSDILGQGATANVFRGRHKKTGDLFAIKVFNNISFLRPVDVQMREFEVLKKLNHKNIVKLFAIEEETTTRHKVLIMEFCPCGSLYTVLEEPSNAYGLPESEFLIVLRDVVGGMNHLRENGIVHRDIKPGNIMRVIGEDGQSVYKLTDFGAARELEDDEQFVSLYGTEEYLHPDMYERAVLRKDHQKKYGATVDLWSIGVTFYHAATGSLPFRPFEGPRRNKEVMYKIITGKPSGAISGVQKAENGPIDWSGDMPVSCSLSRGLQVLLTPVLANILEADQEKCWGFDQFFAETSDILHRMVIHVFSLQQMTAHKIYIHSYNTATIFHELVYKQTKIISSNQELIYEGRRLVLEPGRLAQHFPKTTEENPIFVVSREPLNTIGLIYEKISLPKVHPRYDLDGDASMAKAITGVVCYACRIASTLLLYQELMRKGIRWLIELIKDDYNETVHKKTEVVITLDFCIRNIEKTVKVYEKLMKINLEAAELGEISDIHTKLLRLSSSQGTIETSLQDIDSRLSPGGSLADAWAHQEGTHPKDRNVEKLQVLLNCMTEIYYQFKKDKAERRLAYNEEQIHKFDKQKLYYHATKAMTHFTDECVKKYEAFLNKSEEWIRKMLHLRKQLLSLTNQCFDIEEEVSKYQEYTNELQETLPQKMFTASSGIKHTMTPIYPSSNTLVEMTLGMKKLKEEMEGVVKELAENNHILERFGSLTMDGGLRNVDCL

SMILES: C=C[C@@H]1C[C@@H]2/C=C/COc3cccc(c3)Nc3ncc(F)c(n3)N[C@H]2[C@H]1C(N)=O (single isomer, unassigned) [Example 3]
ring closure, yield of all isomers [1]: 15%

SMILES: Fc1cnc2nc1NC1CCCC(C1)OC/C=C\COc1cccc(c1)N2 (single isomer, unassigned) [Example 33, (16Z)-6-fluoro-14,19-dioxa-2,4,8,26-tetraazatetracyclo[18.3.1.1˜3,7˜0.1˜9,13˜]hexacosa-1(24),3(26),4,6,16,20,22-heptaene]
inhibition at 1 µM (EF2K): 78%
inhibition at 1 µM (FGFR1): 74%
inhibition at 1 µM (IKK-epsilon): 91%
inhibition at 1 µM (IR): 67%
% inhibition MAPKAP-K1-beta (MAPKAP-K1-beta): 68%
% inhibition MARK3 (MARK3): 73%
% inhibition MELK (MELK): 101%
inhibition at 1 µM (SAPK3): 87%
inhibition at 1 µM (SGK): 87%
inhibition at 1 µM (TBK1): 97%

SMILES: NC(=O)[C@H]1[C@H]2C[C@H]3[C@H]1Nc1nc(ncc1F)Nc1cccc(c1)CSS[C@@H]3C2 [Example 10]
inhibition at 1 µM (EF2K): 62%
inhibition at 1 µM (FGFR1): 10%
inhibition at 1 µM (IKK-epsilon): 75%
inhibition at 1 µM (IR): 37%
% inhibition MAPKAP-K1-beta (MAPKAP-K1-beta): 19%
% inhibition MARK3 (MARK3): 74%
% inhibition MELK (MELK): 36%
% inhibition NEK6 (NEK6): 93%
inhibition at 1 µM (SAPK3): 72%
inhibition at 1 µM (SGK): 82%
inhibition at 1 µM (TBK1): 100%

IC50 (FAK(h)): 0.101 to 1 µM
IC50 (Pyk2(h)): 0.101 to 1 µM
SMILES: NC(=O)[C@H]1[C@H]2C[C@H]3[C@H]1Nc1nc(ncc1F)Nc1cccc(c1)OCCS[C@@H]3C2 [Example 20]

% inhibition CDK2/cyclinA(h) (CDK2/cyclinA(h)): 96%
% inhibition CHK1(h) (CHK1(h)): 101%
% inhibition CHK2(h) (CHK2(h)): 64%
% inhibition DDR2(h) (DDR2(h)): 96%
% inhibition FGFR1(h) (FGFR1(h)): 5%
% inhibition Flt4(h) (Flt4(h)): 11%
% inhibition Fms(h) (Fms(h)): 82%
% inhibition Lyn(h) (Lyn(h)): 12%
% inhibition PDGFRα(h) (PDGFRα(h)): 87%
% inhibition Plk1(h) (Plk1(h)): 87%
% inhibition Plk3(h) (Plk3(h)): 104%
% inhibition SIK(h) (SIK(h)): 25%
% inhibition Yes(h) (Yes(h)): 2%
% inhibition c-RAF(h) (c-RAF(h)): 107%
% inhibition cSRC(h) (cSRC(h)): 16%
% inhibition p70S6K(h) (p70S6K(h)): 83%
SMILES: CN1CCN(c2ccc3cc2OCCS[C@@H]2C[C@@H]4C[C@H]2[C@@H](Nc2nc(ncc2F)N3)[C@H]4C(N)=O)CC1 [Example 22]

IC50 (Abl(T315I)(h)): 0.001 to 0.1 µM
SMILES: NC(=O)[C@H]1[C@H]2C[C@H]3[C@H]1Nc1nc(ncc1F)Nc1cccc(c1)NC(=O)CS[C@@H]3C2 [Example 27]
